{"source": "ChEMBL document CHEMBL5727155", "about": "“Ethynyl derivatives” (2018)", "biological_target": "Metabotropic glutamate receptor 4 (Homo sapiens, UniProt Q14833)", "sequence (Q14833 whole entry)": "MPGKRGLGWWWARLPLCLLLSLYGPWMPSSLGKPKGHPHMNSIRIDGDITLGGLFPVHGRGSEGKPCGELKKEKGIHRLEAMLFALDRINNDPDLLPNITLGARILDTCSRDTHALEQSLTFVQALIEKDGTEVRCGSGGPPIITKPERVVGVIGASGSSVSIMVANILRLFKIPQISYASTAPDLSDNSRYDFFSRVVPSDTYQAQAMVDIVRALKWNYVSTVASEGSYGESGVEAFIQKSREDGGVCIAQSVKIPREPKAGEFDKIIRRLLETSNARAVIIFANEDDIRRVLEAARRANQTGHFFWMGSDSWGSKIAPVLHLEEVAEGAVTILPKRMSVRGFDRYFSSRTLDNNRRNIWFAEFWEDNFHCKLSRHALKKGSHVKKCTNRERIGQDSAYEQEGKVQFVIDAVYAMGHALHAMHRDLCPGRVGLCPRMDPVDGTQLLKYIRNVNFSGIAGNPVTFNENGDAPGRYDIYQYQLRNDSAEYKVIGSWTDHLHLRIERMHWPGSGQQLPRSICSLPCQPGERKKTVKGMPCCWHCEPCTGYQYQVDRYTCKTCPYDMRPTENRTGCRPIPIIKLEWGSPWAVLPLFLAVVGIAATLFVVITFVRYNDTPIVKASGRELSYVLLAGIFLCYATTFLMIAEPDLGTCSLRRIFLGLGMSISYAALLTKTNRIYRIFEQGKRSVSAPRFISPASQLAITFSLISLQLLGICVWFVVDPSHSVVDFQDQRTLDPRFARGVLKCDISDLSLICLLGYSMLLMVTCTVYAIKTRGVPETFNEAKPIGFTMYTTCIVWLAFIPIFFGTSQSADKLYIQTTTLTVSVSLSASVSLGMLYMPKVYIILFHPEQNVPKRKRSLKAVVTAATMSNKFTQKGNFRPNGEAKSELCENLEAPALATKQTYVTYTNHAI", "assay": "Ca2+ Mobilization In Vitro Assay: A monoclonal HEK-293 cell line stably transfected with a cDNA encoding for the human mGlu4 receptor was generated; for the work with mGlu4 Positive Allosteric Modulators (PAMs), a cell line with low receptor expression levels and low constitutive receptor activity was selected to allow the differentiation of agonistic versus PAM activity. Cells were cultured according to standard protocols (Freshney, 2000) in Dulbecco's Modified Eagle Medium with high glucose supplemented with 1 mM glutamine, 10% (vol/vol) heat-inactivated bovine calf serum, Penicillin/Streptomycin, 50 μg/ml hygromycin and 15 μg/ml blasticidin (all cell culture reagents and antibiotics from Invitrogen, Basel, Switzerland).About 24 hrs before an experiment, 5×10^4 cells/well were seeded in poly-D-lysine coated, black/clear-bottomed 96-well plates. The cells were loaded with 2.5 μM Fluo-4AM in loading buffer (1×HBSS, 20 mM HEPES) for 1 hr at 37° C. and washed five times with loading buffer. The cells were transferred into a Functional Drug Screening System 7000 (Hamamatsu, Paris, France), and 11 half logarithmic serial dilutions of test compound at 37° C. were added and the cells were incubated for 10-30 min. with on-line recording of fluorescence. […]", "data": [{"smiles": "CC(C)(C)Oc1ncc(N2CCN3C(=O)N(c4c(F)cc(C#Cc5ccccc5)cc4F)C(=O)C[C@@]3(C)C2=O)cn1", "values": [{"measurement": "EC50", "value": 0.157, "unit": "µM"}]}]}
